According to patent publication US8877819B2, “Methods for treating heat stress and related compositions” (Georgetown University, priority 2008, dated 2014):

Tests used:
[1] = system: Zucker Fatty Rats (ZFR); test: Survival after accidental heat stress; assay type: in vivo; settings: Experiment 1; for survival after heat stress (survivors/group): day 42, 86-89° F. for 5-6 hours
Protocol: For two experiments, a total of 96 Zucker Fatty Rats (ZFR) (Charles River, Wilmington, Mass.) were used: 48 in each experiment were divided into four groups of 12 rats. Initial body weights ranged between 434 and 624 g in the first experiment and between 388 and 520 g in the second. All rats consumed a regular rat diet in crushed form (Purina Rat Chow, Ralston Purina, St. Louis, Mo.). Sucrose was added to the pulverized regular rat chow (30%, w/w). The four groups comprised a control eating the described diet and three test groups eating the same diet but with the addition of captopril or astaxanthin (two different doses). […] The amount of astaxanthin added was based on 2% (w/w) content of astaxanthin to powder. The first study continued for 57 days while the second continued for 75 days.
On the 42nd day, the temperature of rodent quarters rose from 72° F. to the range of 86-89° F. It was estimated that the rats were exposed to this elevated temperature for 5-6 hours. […] In contrast all ZFR in the Hi Asta group survived (11/11).
On a hot summer day, the air conditioning system in the animal quarters ceased functioning. The internal temperature of the animal quarters rose to a Fahrenheit range in the high 80's. Due to this heat stress, several ZFR that had already undergone almost six weeks of study expired. […] This can be attributed to poor stress handling of ZFR.

[2] = system: Zucker Fatty Rats (ZFR); test: Blood pressure and cardiac rate by tail plethysmography; assay type: in vivo; settings: for SBP over the last month vs control / SBP after heat stress: Experiment 1; for SBP after heat stress: survivors, 12 days after heat stress; for DBP / SBP / Cardiac rate / SBP at the end of study (75 days) vs Lo Asta group / average SBP vs control from 40 days to end of study: Experiment 2; for DBP / SBP / Cardiac rate: 60 days; for Cardiac rate: in beats/min (unit assumed)
Protocol: For two experiments, a total of 96 Zucker Fatty Rats (ZFR) (Charles River, Wilmington, Mass.) were used: 48 in each experiment were divided into four groups of 12 rats. Initial body weights ranged between 434 and 624 g in the first experiment and between 388 and 520 g in the second. All rats consumed a regular rat diet in crushed form (Purina Rat Chow, Ralston Purina, St. Louis, Mo.). Sucrose was added to the pulverized regular rat chow (30%, w/w). The four groups comprised a control eating the described diet and three test groups eating the same diet but with the addition of captopril or astaxanthin (two different doses). […] The amount of astaxanthin added was based on 2% (w/w) content of astaxanthin to powder. The first study continued for 57 days while the second continued for 75 days. SBP was measured by tail plethysmography using two different instruments. As in many previous studies, an instrument from Narco Biosciences (Houston, Tex.) was used. This allowed for rapid measurement SBP with a beeper sound system. The second reading was performed on an instrument obtained from Kent Scientific Corporation (Torrington, Conn.). The latter is a computerized, non-invasive tail cuff acquisition system that utilizes a specially-designed differential pressure transducer to non-invasively measure the blood volume in the tail. This instrument not only records SBP, but also provides measurements of mean blood pressure (MBP), diastolic blood pressure (DBP), and cardiac rate. The two instruments were used interchangeably. Previous experience has shown that the SBP readings were virtually the same by either instrument. Rats were allowed free access to their diet and water until SBP readings were obtained between 13.00 h and 17.00 h after a slight warming. Multiple readings on individual rats were taken. To be accepted, SBP measurements on a given rat had to be stable (consistently within 5 mm Hg).

[3] = system: Zucker Fatty Rats (ZFR); test: Insulin Challenge Testing (ICT); assay type: in vivo; settings: Experiment 1, survivors after heat stress
Protocol: Testing was commenced after 17-19 hours of food deprivation. For ICT, 0.6 unit of regular insulin/kg BW (Eli Lilly Co., Indianapolis, Ind.) was administered, and blood for glucose determination was obtained from the tail vein at 7.5 min after injection. Glucose was estimated using commercial glucose strips (Lifescan, One Touch Ultra, […], Calif.).

[4] = system: RAS; test: Losartan challenge (decrease in SBP to estimate activity of the RAS); assay type: in vivo, Zucker Fatty Rats; settings: losartan 40 mg/kg orally
Description: Three and six hours after lavage, SBP was remeasured. The decreased SBP after losartan was used to estimate activity of the RAS.

[5] = system: adiponectin; test: Cytokine assay (ELISA), adiponectin; assay type: in vivo, Zucker Fatty Rats; settings: Experiment 2
Protocol: (§1) Various cytokines were measured by ELISA methodology using kits from the following sources: rat MCP-1—Assay Designs Inc., Ann Arbor, Mich.; rat adiponectin—ALPCO Diagnostics, Salem, N.H.; TNF-a, ALPCO Diagnostics, Salem, N.H.; RAT IL-1B—Assay Designs Inc, Ann Arbor, Mich.; RAT IL-6—ALPCO Diagnostics, Salem, N.H.

[6] = system: IL-1B; test: Cytokine assay (ELISA), IL-1B; assay type: in vivo, Zucker Fatty Rats; settings: Experiment 2
Protocol: as §1

[7] = system: DNA fragmentation; test: DNA fragmentation in liver and kidney; assay type: in vivo, Zucker Fatty Rats; settings: Experiment 2; for DNA Fragmentation, Kidney / DNA Fragmentation, Liver: percentage of total DNA in the supernatant fraction
Protocol: Frozen liver and kidney samples were homogenized in lysis buffer (5 mM Tris-HCl, 20 mM EDTA, 0.5% Triton X-100, pH 8.0). Homogenates were centrifuged at 27,000 g for 20 min to separate intact chromatin in the pellet from fragmented DNA in the supernatant fraction. Pellets were re-suspended in 0.5 M perchloric acid and 5.5 M perchloric acid was added to supernatant samples to reach a concentration of 0.5 M. Samples were heated at 90° C. for 15 min and centrifuged at 1,500 g for 10 min to remove protein. Resulting supernatants were reacted with diphenylamine for 16-20 h at room temperature. Absorbance was measured at 600 nm. DNA fragmentation in control samples was expressed as percentage of total DNA appearing in the supernatant fraction. Treatment effects are reported as percent of control fragmentation.

[8] = Hi Asta, astaxanthin 25 mg/kg in feed
[9] = Lo Asta, astaxanthin 5 mg/kg in feed

## CC1=C(/C=C/C(C)=C/C=C/C(C)=C/C=C/C=C(C)/C=C/C=C(C)/C=C/C2=C(C)C(=O)[C@@H](O)CC2(C)C)C(C)(C)C[C@H](O)C1=O [Asta, astaxanthin]
[1]; [8]
  survival percentage after heat stress: 100%
  survival after heat stress (survivors/group): 11/11
[1]; [9]
  survival percentage after heat stress: 33%
  survival after heat stress (survivors/group): 4/12
[2]; [8]
  SBP over the last month vs control: significantly lower SBP
  SBP after heat stress: 133.5 ± 1.5 mm Hg
  DBP: 102.0 ± 2.0 mm Hg
  SBP: 132.0 ± 1.8 mm Hg
  Cardiac rate: 401.0 ± 10.6
  SBP at the end of study (75 days) vs Lo Asta group: significantly lower than in the Lo Asta group
  average SBP vs control from 40 days to end of study: significantly lower than control
[2]; [9]
  SBP over the last month vs control: tendency for the SBP to be lower
  SBP after heat stress: 140.0 ± 2.0 mm Hg
  DBP: 108.0 ± 2.1 mm Hg
  SBP: 134.0 ± 1.6 mm Hg
  Cardiac rate: 387.0 ± 8.6
  average SBP vs control from 40 days to end of study: significantly lower than control
[3]; [8]
  Insulin: decrease in circulating glucose after insulin challenge (ICT): -7.6 ± 2.5 mg/dL
[3]; [9]
  Insulin: decrease in circulating glucose after insulin challenge (ICT): -8.5 ± 4.1 mg/dL
[4]; Experiment 1, survivors after heat stress, Hi Asta, astaxanthin 25 mg/kg in feed
  Losartan: decrease in SBP after losartan challenge: 28.0 ± 2.5
[4]; Experiment 1, survivors after heat stress, Lo Asta, astaxanthin 5 mg/kg in feed
  Losartan: decrease in SBP after losartan challenge: 38.0 ± 3.2
[4]; Experiment 2, Hi Asta, astaxanthin 25 mg/kg in feed
  Losartan: decrease in SBP after losartan challenge: 27.5 ± 1.3 mm Hg
[4]; Experiment 2, Lo Asta, astaxanthin 5 mg/kg in feed
  Losartan: decrease in SBP after losartan challenge: 33.8 ± 2.8 mm Hg
[5]; [8]
  Adiponectin: 4.03 ± 0.40
[5]; [9]
  Adiponectin: 4.11 ± 0.27
[6]; [8]
  IL-1β: 440.0 ± 25.5
[6]; [9]
  IL-1β: 490.0 ± 21.7
[7]; [8]
  DNA Fragmentation (% Control), Kidney: 100 % Control
  DNA Fragmentation (% Control), Liver: 103 % Control
  DNA Fragmentation, Kidney: 4.3 ± 0.48
  DNA Fragmentation, Liver: 4.1 ± 0.33
[7]; [9]
  DNA Fragmentation (% Control), Kidney: 102 % Control
  DNA Fragmentation (% Control), Liver: 108 % Control
  DNA Fragmentation, Kidney: 4.4 ± 0.37
  DNA Fragmentation, Liver: 4.3 ± 0.38

## C[C@H](CS)C(=O)N1CCC[C@H]1C(=O)O [Captopril, reference compound]
[1]; captopril 30 mg/kg in feed
  survival percentage after heat stress: 36%
  survival after heat stress (survivors/group): 4/11
[2]; captopril 30 mg/kg in feed
  SBP over the last month vs control: significantly lower SBP
  SBP after heat stress: 133.8 ± 2.4 mm Hg
  DBP: 103.0 ± 1.8 mm Hg
  SBP: 129.0 ± 1.5 mm Hg
  Cardiac rate: 393.0 ± 9.3
  SBP at the end of study (75 days) vs Lo Asta group: significantly lower than in the Lo Asta group
  average SBP vs control from 40 days to end of study: significantly lower than control
[3]; captopril 30 mg/kg in feed
  Insulin: decrease in circulating glucose after insulin challenge (ICT): -9.8 ± 3.5 mg/dL
[4]; Experiment 1, survivors after heat stress, captopril 30 mg/kg in feed
  Losartan: decrease in SBP after losartan challenge: 29.0 ± 2.4
[4]; Experiment 2, captopril 30 mg/kg in feed
  Losartan: decrease in SBP after losartan challenge: 30.6 ± 1.8 mm Hg
[5]; captopril 30 mg/kg in feed
  Adiponectin: 4.27 ± 0.39
[6]; captopril 30 mg/kg in feed
  IL-1β: 416.0 ± 14.8
[7]; captopril 30 mg/kg in feed
  DNA Fragmentation (% Control), Kidney: 105 % Control
  DNA Fragmentation (% Control), Liver: 100 % Control
  DNA Fragmentation, Kidney: 4.5 ± 0.51
  DNA Fragmentation, Liver: 4.0 ± 0.17
